Measured values reported in PubChem BioAssay (NCI).
Values joined by “and” are separate entries in the source; they are usually repeats but may differ in a detail not shown here. Identical values can stand only once.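 Briefly, cells in 96-well plates were exposed to five compound concentrations for 48 h, and endpoints were estimated by linear interpolation. At the GI50, growth is halved. Definition used: TGI = concentration required for complete inhibition of growth.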

Tests used:
Test in all cases: growth of human tumour cells (NCI), 48 h
[1] = tested on: UACC-62 melanoma
[2] = tested on: IGROV1 ovarian
[3] = tested on: TK-10 renal
[4] = tested on: HOP-62 NSCLC
[5] = tested on: UACC-257 melanoma
[6] = tested on: A549 NSCLC
[7] = tested on: SK-OV-3 ovarian
[8] = tested on: BT-549 breast
[9] = tested on: NCI-H23 lung
[10] = tested on: SNB-19 CNS

Structure (SMILES) | GI50 [1] | TGI [1] | GI50 [2] | TGI [2] | GI50 [3] | TGI [3] | GI50 [4] | TGI [4] | GI50 [5] | TGI [5] | GI50 [6] | TGI [6] | GI50 [7] | TGI [7] | GI50 [8] | TGI [8] | GI50 [9] | TGI [9] | GI50 [10] | TGI [10]
CC/C(=C(\c1ccc(O)cc1)c1ccc(OCCNC)cc1)c1ccccc1 | 1.66 µM and 1.65 µM and 1.78 µM | 3.41 µM and 3.24 µM and 3.44 µM | 1.93 µM and 1.65 µM and 2.38 µM | 4.13 µM and 3.25 µM and 5.4 µM | 2.39 µM and 1.88 µM and 2.56 µM | 5.5 µM and 3.89 µM and 6.26 µM | 1.88 µM and 1.83 µM and 1.71 µM | 3.35 µM and 3.32 µM and 3.42 µM | 1.93 µM and 1.64 µM and 1.7 µM | 3.82 µM and 3.35 µM and 3.28 µM | 2.33 µM and 1.79 µM and 1.74 µM | 5.55 µM and 3.49 µM and 3.75 µM | 5.14 µM and 3.69 µM and 2.08 µM | 13.6 µM and 9.3 µM and 5.09 µM | 2.39 µM and 1.84 µM and 3.33 µM | 5.61 µM and 3.77 µM and 8.64 µM | 2.13 µM and 1.97 µM and 2.1 µM | 4.8 µM and 4.29 µM and 4.45 µM | 3.61 µM and 2.67 µM and 2.63 µM | 10.9 µM and 8.03 µM and 7.01 µM
N#Cc1cccc(Nc2nccc(-c3cnn4ncccc34)n2)c1 | 0.00396 µM | 0.0116 µM | 0.00937 µM | > 11.6 µM | 0.00603 µM | 0.0172 µM | 0.00749 µM |  | 0.00594 µM | 0.0154 µM | 0.00729 µM | > 25 µM | 0.014 µM | > 25 µM | 0.00559 µM | 0.017 µM | 0.00686 µM | 0.0239 µM | 0.00702 µM | > 25 µM
NC(N)=NC(N)=NCCc1ccccc1 | > 100 µM | > 100 µM | > 100 µM | > 100 µM | 58.6 µM and > 100 µM | > 100 µM | 37.4 µM and > 100 µM | > 100 µM | > 100 µM and 97.3 µM | > 100 µM | > 100 µM and 97.1 µM | > 100 µM | 64.9 µM and > 100 µM | > 100 µM | > 100 µM and 32.8 µM | > 100 µM | 50.5 µM and 34.7 µM | > 100 µM | > 100 µM | > 100 µM
O=C=Nc1ccc(Cc2ccc(N=C=O)cc2)cc1 (tested in a mixture with another compound) | > 25 mg/L | > 25 mg/L | > 25 mg/L | > 25 mg/L | > 25 mg/L | > 25 mg/L | > 25 mg/L | > 25 mg/L | > 25 mg/L | > 25 mg/L | > 25 mg/L | > 25 mg/L | > 25 mg/L | > 25 mg/L | > 25 mg/L | > 25 mg/L | > 25 mg/L | > 25 mg/L | > 25 mg/L | > 25 mg/L
